According to PMC5622171 (Nature Communications, 2017):

Columns and labels:
Experiment in all cases: KINOMEscan kinase profiling
Type in all cases: binding
LIMK2 = target: T1, LIMK2 (Homo sapiens, UniProt P53671); details: read-out: %Inhibition by 10 μM SPA70
T1 construct: purchased DiscoverX (Ambit Biosciences) KINOMEscan
Outline: (§1)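 KINOMEscan profiling followed a published protocol. Kinases whose inhibition exceeded a set cut-off were then tested in a dilution series beginning at 30 µM.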

PRKCH = target: T2, PRKCH (Homo sapiens, UniProt P24723); details: read-out: %Inhibition by 10 μM SPA70
T2 construct: purchased DiscoverX (Ambit Biosciences) KINOMEscan
Outline: as §1

CSNK1D = target: T3, CSNK1D (Homo sapiens, UniProt P48730); details: read-out: %Inhibition by 10 μM SPA70
T3 construct: purchased DiscoverX (Ambit Biosciences) KINOMEscan
Outline: as §1

MEK2 = target: T4, MEK2 (Homo sapiens, UniProt P36507); details: read-out: %Inhibition by 10 μM SPA70
T4 construct: purchased DiscoverX (Ambit Biosciences) KINOMEscan
Outline: as §1

AKT1 = target: T5, AKT1 (Homo sapiens, UniProt P31749); details: read-out: %Inhibition by 10 μM SPA70
T5 construct: purchased DiscoverX (Ambit Biosciences) KINOMEscan
Outline: as §1

RAF1 = target: T6, RAF1 (Homo sapiens, UniProt P04049); details: read-out: %Inhibition by 10 μM SPA70
T6 construct: purchased DiscoverX (Ambit Biosciences) KINOMEscan
Outline: as §1

FER = target: T7, FER (Homo sapiens, UniProt P16591); details: read-out: %Inhibition by 10 μM SPA70
T7 construct: purchased DiscoverX (Ambit Biosciences) KINOMEscan
Outline: as §1

MAP4K3 = target: T8, MAP4K3 (Homo sapiens, UniProt Q8IVH8)
T8 construct: purchased DiscoverX (Ambit Biosciences) KINOMEscan
T8 sequence (Q8IVH8 whole entry): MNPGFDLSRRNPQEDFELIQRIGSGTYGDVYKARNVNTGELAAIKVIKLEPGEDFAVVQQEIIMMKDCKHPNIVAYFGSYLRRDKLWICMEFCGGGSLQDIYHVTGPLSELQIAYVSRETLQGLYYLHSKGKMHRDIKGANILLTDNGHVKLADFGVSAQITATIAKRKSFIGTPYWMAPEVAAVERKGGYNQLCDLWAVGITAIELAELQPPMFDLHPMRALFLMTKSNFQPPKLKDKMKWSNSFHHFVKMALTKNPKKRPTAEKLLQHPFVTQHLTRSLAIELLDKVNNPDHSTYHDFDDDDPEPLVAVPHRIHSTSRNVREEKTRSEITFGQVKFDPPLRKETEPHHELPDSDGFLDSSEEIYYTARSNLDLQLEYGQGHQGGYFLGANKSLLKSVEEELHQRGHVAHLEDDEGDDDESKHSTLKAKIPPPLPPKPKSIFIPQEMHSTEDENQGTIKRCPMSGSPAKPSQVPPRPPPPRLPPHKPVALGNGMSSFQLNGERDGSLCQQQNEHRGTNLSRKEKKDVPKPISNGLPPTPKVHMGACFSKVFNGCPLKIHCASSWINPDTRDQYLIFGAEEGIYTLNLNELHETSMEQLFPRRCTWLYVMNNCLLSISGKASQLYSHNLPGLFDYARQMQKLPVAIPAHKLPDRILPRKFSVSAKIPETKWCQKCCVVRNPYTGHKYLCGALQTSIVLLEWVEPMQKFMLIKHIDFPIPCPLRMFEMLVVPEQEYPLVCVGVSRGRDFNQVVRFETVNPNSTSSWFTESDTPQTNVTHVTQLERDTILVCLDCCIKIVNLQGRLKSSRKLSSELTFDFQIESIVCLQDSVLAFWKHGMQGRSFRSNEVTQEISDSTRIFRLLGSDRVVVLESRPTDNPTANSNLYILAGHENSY
Outline: as §1

TNK1 = target: T9, TNK1 (Homo sapiens, UniProt Q13470); details: read-out: %Inhibition by 10 μM SPA70
T9 construct: purchased DiscoverX (Ambit Biosciences) KINOMEscan
Outline: as §1

PRKD1 = target: T10, PRKD1 (Homo sapiens, UniProt Q15139); details: read-out: %Inhibition by 10 μM SPA70
T10 construct: purchased DiscoverX (Ambit Biosciences) KINOMEscan
T10 sequence (Q15139 whole entry): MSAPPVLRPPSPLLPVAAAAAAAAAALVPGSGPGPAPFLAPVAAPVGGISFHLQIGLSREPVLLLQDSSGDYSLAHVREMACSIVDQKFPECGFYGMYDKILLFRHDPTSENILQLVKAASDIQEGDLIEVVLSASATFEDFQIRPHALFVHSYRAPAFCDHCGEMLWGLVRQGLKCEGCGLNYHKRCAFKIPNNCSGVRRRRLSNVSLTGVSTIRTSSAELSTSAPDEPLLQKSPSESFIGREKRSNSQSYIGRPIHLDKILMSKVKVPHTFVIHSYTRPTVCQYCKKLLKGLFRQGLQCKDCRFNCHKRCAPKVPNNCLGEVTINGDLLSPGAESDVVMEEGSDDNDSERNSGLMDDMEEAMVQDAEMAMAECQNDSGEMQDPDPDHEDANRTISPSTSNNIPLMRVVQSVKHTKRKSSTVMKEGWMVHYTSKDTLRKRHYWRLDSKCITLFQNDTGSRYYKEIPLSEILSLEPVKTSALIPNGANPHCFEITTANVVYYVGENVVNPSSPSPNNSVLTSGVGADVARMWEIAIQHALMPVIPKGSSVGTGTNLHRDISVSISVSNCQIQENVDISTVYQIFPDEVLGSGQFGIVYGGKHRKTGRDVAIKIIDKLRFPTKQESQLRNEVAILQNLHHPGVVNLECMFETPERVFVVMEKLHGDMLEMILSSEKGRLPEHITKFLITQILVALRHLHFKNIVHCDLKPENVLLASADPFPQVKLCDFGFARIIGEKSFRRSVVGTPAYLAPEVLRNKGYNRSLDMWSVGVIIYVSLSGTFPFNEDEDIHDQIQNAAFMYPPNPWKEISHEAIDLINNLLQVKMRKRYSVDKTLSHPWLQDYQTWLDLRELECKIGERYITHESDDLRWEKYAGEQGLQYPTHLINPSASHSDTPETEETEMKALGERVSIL
Outline: as §1

p38-gamma = target: T11, p38-gamma (Homo sapiens, UniProt P53778); details: read-out: %Inhibition by 10 μM SPA70
T11 construct: purchased DiscoverX (Ambit Biosciences) KINOMEscan
Outline: as §1

ASK1 = target: T12, ASK1 (Homo sapiens, UniProt Q99683); details: read-out: %Inhibition by 10 μM SPA70
T12 construct: purchased DiscoverX (Ambit Biosciences) KINOMEscan
Outline: as §1

ABL2 = target: T13, ABL2 (Homo sapiens, UniProt P42684); details: read-out: %Inhibition by 10 μM SPA70
T13 construct: purchased DiscoverX (Ambit Biosciences) KINOMEscan
Outline: as §1

[1] = target: T14, RSK1(Kin.Dom.1-N-terminal) (Homo sapiens, UniProt Q15418); details: read-out: %Inhibition by 10 μM SPA70
T14 construct: RSK1(Kin.Dom.1-N-terminal); purchased DiscoverX (Ambit Biosciences) KINOMEscan
Outline: as §1

PYK2 = target: T15, PYK2 (Homo sapiens, UniProt Q14289); details: read-out: %Inhibition by 10 μM SPA70
T15 construct: purchased DiscoverX (Ambit Biosciences) KINOMEscan
Outline: as §1

PIP5K1C = target: T16, PIP5K1C (Homo sapiens, UniProt O60331)
T16 construct: purchased DiscoverX (Ambit Biosciences) KINOMEscan
Outline: as §1

PIM3 = target: T17, PIM3 (Homo sapiens, UniProt Q86V86); details: read-out: %Inhibition by 10 μM SPA70
T17 construct: purchased DiscoverX (Ambit Biosciences) KINOMEscan
Outline: as §1

SBK1 = target: T18, SBK1 (Homo sapiens, UniProt Q52WX2); details: read-out: %Inhibition by 10 μM SPA70
T18 construct: purchased DiscoverX (Ambit Biosciences) KINOMEscan
T18 sequence (Q52WX2 whole entry): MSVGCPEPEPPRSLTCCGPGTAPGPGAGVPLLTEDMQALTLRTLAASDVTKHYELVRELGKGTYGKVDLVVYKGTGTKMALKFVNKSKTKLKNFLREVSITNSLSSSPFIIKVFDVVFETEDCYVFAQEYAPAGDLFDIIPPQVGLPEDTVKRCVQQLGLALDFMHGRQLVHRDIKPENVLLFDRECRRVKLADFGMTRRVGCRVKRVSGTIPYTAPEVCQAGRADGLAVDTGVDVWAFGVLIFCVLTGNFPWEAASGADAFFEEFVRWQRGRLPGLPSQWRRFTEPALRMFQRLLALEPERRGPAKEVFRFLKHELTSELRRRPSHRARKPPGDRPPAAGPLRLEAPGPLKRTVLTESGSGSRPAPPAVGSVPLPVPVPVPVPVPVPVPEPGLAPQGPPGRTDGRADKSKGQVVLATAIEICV
Outline: as §1

FLT4 = target: T19, FLT4 (Homo sapiens, UniProt P35916); details: read-out: %Inhibition by 10 μM SPA70
T19 construct: purchased DiscoverX (Ambit Biosciences) KINOMEscan
Outline: as §1

FGR = target: T20, FGR (Homo sapiens, UniProt P09769); details: read-out: %Inhibition by 10 μM SPA70
T20 construct: purchased DiscoverX (Ambit Biosciences) KINOMEscan
Outline: as §1

[2] = target: T21, JAK1(JH1domain-catalytic) (Homo sapiens, UniProt P23458)
T21 construct: JAK1(JH1domain-catalytic); purchased DiscoverX (Ambit Biosciences) KINOMEscan
Outline: as §1

PIK3CB = target: T22, PIK3CB (Homo sapiens, UniProt P42338); details: read-out: %Inhibition by 10 μM SPA70
T22 construct: purchased DiscoverX (Ambit Biosciences) KINOMEscan
Outline: as §1

CAMKK1 = target: T23, CAMKK1 (Homo sapiens, UniProt Q8N5S9); details: read-out: %Inhibition by 10 μM SPA70
T23 construct: purchased DiscoverX (Ambit Biosciences) KINOMEscan
Outline: as §1

CIT = target: T24, CIT (Homo sapiens, UniProt O14578)
T24 construct: purchased DiscoverX (Ambit Biosciences) KINOMEscan
Outline: as §1

[3] = target: T25, RSK3(Kin.Dom.1-N-terminal) (Homo sapiens, UniProt Q15349); details: read-out: %Inhibition by 10 μM SPA70
T25 construct: RSK3(Kin.Dom.1-N-terminal); purchased DiscoverX (Ambit Biosciences) KINOMEscan
Outline: as §1

GAK = target: T26, GAK (Homo sapiens, UniProt O14976); details: read-out: %Inhibition by 10 μM SPA70
T26 construct: purchased DiscoverX (Ambit Biosciences) KINOMEscan
Outline: as §1

PRKD3 = target: T27, PRKD3 (Homo sapiens, UniProt O94806); details: read-out: %Inhibition by 10 μM SPA70
T27 construct: purchased DiscoverX (Ambit Biosciences) KINOMEscan
Outline: as §1

TTK = target: T28, TTK (Homo sapiens, UniProt P33981); details: read-out: %Inhibition by 10 μM SPA70
T28 construct: purchased DiscoverX (Ambit Biosciences) KINOMEscan
T28 sequence (P33981 whole entry): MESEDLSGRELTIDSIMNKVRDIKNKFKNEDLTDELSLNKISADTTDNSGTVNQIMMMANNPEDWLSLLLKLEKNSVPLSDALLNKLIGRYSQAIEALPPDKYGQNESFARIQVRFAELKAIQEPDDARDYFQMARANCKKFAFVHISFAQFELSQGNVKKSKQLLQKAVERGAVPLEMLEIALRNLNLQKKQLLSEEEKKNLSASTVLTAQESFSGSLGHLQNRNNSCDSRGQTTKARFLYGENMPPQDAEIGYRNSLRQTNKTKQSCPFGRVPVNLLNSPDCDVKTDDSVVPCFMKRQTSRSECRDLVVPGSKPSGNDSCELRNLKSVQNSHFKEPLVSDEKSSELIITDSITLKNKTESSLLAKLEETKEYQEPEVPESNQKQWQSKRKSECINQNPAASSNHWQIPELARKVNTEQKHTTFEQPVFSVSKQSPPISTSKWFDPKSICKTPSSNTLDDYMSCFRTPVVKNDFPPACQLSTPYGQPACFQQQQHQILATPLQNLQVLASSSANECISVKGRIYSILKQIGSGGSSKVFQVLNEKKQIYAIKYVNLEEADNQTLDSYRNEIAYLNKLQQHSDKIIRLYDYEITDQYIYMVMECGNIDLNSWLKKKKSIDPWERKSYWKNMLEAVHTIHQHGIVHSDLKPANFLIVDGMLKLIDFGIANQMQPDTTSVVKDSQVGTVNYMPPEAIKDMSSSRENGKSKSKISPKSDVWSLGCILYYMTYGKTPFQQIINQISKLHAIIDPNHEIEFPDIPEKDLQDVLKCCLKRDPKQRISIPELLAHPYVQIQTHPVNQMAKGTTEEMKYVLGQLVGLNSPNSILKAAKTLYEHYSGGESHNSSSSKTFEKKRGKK
Outline: as §1

LIMK1 = target: T29, LIMK1 (Homo sapiens, UniProt P53667); details: read-out: %Inhibition by 10 μM SPA70
T29 construct: purchased DiscoverX (Ambit Biosciences) KINOMEscan
Outline: as §1

[4] = target: T30, RSK4(Kin.Dom.1-N-terminal) (Homo sapiens, UniProt Q9UK32)
T30 construct: RSK4(Kin.Dom.1-N-terminal); purchased DiscoverX (Ambit Biosciences) KINOMEscan
Outline: as §1

CAMK1D = target: T31, CAMK1D (Homo sapiens, UniProt Q8IU85); details: read-out: %Inhibition by 10 μM SPA70
T31 construct: purchased DiscoverX (Ambit Biosciences) KINOMEscan
Outline: as §1

TNNI3K = target: T32, TNNI3K (Homo sapiens, UniProt Q59H18); details: read-out: %Inhibition by 10 μM SPA70
T32 construct: purchased DiscoverX (Ambit Biosciences) KINOMEscan
T32 sequence (Q59H18 whole entry): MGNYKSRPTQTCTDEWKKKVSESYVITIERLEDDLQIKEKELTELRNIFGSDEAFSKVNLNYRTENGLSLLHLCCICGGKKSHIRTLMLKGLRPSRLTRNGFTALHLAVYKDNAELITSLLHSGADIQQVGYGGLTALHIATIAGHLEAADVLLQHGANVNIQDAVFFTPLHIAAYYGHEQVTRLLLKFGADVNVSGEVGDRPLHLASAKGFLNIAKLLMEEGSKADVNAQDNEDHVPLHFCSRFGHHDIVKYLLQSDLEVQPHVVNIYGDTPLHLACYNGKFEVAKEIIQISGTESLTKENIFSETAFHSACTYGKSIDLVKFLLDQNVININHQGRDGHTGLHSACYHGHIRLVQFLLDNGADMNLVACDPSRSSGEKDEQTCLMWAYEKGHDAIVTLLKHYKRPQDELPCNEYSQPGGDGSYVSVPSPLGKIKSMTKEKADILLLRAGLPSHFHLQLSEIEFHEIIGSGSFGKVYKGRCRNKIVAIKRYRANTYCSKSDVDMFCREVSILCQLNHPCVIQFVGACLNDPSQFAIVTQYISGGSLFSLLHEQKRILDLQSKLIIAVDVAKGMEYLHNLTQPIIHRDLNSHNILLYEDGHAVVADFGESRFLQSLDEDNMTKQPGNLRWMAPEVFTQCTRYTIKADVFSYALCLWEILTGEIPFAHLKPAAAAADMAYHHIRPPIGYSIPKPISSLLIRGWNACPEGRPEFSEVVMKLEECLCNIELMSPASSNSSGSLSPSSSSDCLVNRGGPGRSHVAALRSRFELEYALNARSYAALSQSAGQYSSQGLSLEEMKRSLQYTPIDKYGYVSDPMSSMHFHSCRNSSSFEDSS
Outline: as §1

TGFBR1 = target: T33, TGFBR1 (Homo sapiens, UniProt P36897); details: read-out: %Inhibition by 10 μM SPA70
T33 construct: purchased DiscoverX (Ambit Biosciences) KINOMEscan
Outline: as §1

TIE2 = target: T34, TIE2 (Homo sapiens, UniProt Q02763); details: read-out: %Inhibition by 10 μM SPA70
T34 construct: purchased DiscoverX (Ambit Biosciences) KINOMEscan
Outline: as §1

HCK = target: T35, HCK (Homo sapiens, UniProt P08631); details: read-out: %Inhibition by 10 μM SPA70
T35 construct: purchased DiscoverX (Ambit Biosciences) KINOMEscan
T35 sequence (P08631 whole entry): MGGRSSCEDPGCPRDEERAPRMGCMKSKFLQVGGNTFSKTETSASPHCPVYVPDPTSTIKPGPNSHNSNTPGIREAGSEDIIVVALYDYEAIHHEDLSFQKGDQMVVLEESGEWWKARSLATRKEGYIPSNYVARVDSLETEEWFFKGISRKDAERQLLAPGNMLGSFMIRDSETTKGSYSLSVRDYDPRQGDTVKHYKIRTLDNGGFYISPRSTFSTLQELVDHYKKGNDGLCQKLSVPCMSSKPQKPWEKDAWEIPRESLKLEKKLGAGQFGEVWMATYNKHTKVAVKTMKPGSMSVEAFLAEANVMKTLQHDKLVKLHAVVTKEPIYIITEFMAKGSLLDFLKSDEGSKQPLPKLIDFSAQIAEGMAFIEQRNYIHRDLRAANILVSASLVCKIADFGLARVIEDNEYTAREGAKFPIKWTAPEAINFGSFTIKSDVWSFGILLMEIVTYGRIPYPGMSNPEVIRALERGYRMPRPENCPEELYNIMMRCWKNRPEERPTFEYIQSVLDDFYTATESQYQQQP
Outline: as §1

TBK1 = target: T36, TBK1 (Homo sapiens, UniProt Q9UHD2); details: read-out: %Inhibition by 10 μM SPA70
T36 construct: purchased DiscoverX (Ambit Biosciences) KINOMEscan
Outline: as §1

CSNK1G2 = target: T37, CSNK1G2 (Homo sapiens, UniProt P78368)
T37 construct: purchased DiscoverX (Ambit Biosciences) KINOMEscan
Outline: as §1

FES = target: T38, FES (Homo sapiens, UniProt P07332); details: read-out: %Inhibition by 10 μM SPA70
T38 construct: purchased DiscoverX (Ambit Biosciences) KINOMEscan
Outline: as §1

PCTK3 = target: T39, PCTK3 (Homo sapiens, UniProt Q07002); details: read-out: %Inhibition by 10 μM SPA70
T39 construct: purchased DiscoverX (Ambit Biosciences) KINOMEscan
Outline: as §1

PLK2 = target: T40, PLK2 (Homo sapiens, UniProt Q9NYY3)
T40 construct: purchased DiscoverX (Ambit Biosciences) KINOMEscan
Outline: as §1

Work on COc1ccc(OC)c(-n2nnc(S(=O)(=O)c3ccc(C(C)(C)C)cc3)c2C)c1 [SPA70] yielded an inhibition at 10 µM (LIMK2) of 2%, an inhibition at 10 µM (PRKCH) of 13% and an inhibition at 10 µM (CSNK1D) of 3%. The inhibition at 10 µM (MEK2) was 4%, the inhibition at 10 µM (AKT1) was 0% and the inhibition at 10 µM (RAF1) was 19%. For the same compound, the inhibition at 10 µM (FER) was 19%, the “%Inhibition by 10 μM SPA70” value (MAP4K3) was 0% and the inhibition at 10 µM (TNK1) was 0%. For the same compound, the inhibition at 10 µM (PRKD1) was 0%, the inhibition at 10 µM (p38-gamma) was 8% and the inhibition at 10 µM (ASK1) was 4%. The inhibition at 10 µM (ABL2) was 0%, the inhibition at 10 µM [1] was 40% and the inhibition at 10 µM (PYK2) was 2%. For the same compound, the “%Inhibition by 10 μM SPA70” value (PIP5K1C) was 0%, the inhibition at 10 µM (PIM3) was 0% and the inhibition at 10 µM (SBK1) was 0%. The inhibition at 10 µM (FLT4) was 2%, the inhibition at 10 µM (FGR) was 6% and the “%Inhibition by 10 μM SPA70” value [2] was 19%. The inhibition at 10 µM (PIK3CB) was 8%, the inhibition at 10 µM (CAMKK1) was 1% and the “%Inhibition by 10 μM SPA70” value (CIT) was 12%. The inhibition at 10 µM [3] was 0%, the inhibition at 10 µM (GAK) was 3% and the inhibition at 10 µM (PRKD3) was 0%. The inhibition at 10 µM (TTK) was 0%, the inhibition at 10 µM (LIMK1) was 0% and the “%Inhibition by 10 μM SPA70” value [4] was 4%. The inhibition at 10 µM (CAMK1D) was 20%, the inhibition at 10 µM (TNNI3K) was 0% and the inhibition at 10 µM (TGFBR1) was 20%. It also gave an inhibition at 10 µM (TIE2) of 0%, an inhibition at 10 µM (HCK) of 9% and an inhibition at 10 µM (TBK1) of 0%. For the same compound, the “%Inhibition by 10 μM SPA70” value (CSNK1G2) was 0%, the inhibition at 10 µM (FES) was 40% and the inhibition at 10 µM (PCTK3) was 9%. The “%Inhibition by 10 μM SPA70” value (PLK2) was 9%.
